Test results: PubChem BioAssay (NCI)
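Each compound was tested at five concentrations against cells in 96-well plates for 48 hours. TGI: concentration producing complete growth inhibition.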

Columns and labels:
Assay in all cases: DTP human tumour cell line panel, 48 h
COLO 205 colon = test system: COLO 205 colon
A498 renal = test system: A498 renal
LOX IMVI melanoma = test system: LOX IMVI melanoma
HL-60(TB) leukemia = test system: HL-60(TB) leukemia
SK-OV-3 ovarian = test system: SK-OV-3 ovarian
SNB-19 CNS = test system: SNB-19 CNS
U251 CNS = test system: U251 CNS
786-0 renal = test system: 786-0 renal
M14 melanoma = test system: M14 melanoma
MOLT-4 leukemia = test system: MOLT-4 leukemia
HCT-116 colon = test system: HCT-116 colon
A549 NSCLC = test system: A549 NSCLC
NCI-H23 lung = test system: NCI-H23 lung
SF-268 CNS = test system: SF-268 CNS
OVCAR-5 ovarian = test system: OVCAR-5 ovarian
HCT-15 colon = test system: HCT-15 colon
OVCAR-4 ovarian = test system: OVCAR-4 ovarian
UACC-257 melanoma = test system: UACC-257 melanoma
SK-MEL-2 melanoma = test system: SK-MEL-2 melanoma

SMILES | TGI (COLO 205 colon) [µM] | TGI (A498 renal) [µM] | TGI (LOX IMVI melanoma) [µM] | TGI (HL-60(TB) leukemia) [µM] | TGI (SK-OV-3 ovarian) [µM] | TGI (SNB-19 CNS) [µM] | TGI (U251 CNS) [µM] | TGI (786-0 renal) [µM] | TGI (M14 melanoma) [µM] | TGI (MOLT-4 leukemia) [µM] | TGI (HCT-116 colon) [µM] | TGI (A549 NSCLC) [µM] | TGI (NCI-H23 lung) [µM] | TGI (SF-268 CNS) [µM] | TGI (OVCAR-5 ovarian) [µM] | TGI (HCT-15 colon) [µM] | TGI (OVCAR-4 ovarian) [µM] | TGI (UACC-257 melanoma) [µM] | TGI (SK-MEL-2 melanoma) [µM]
CSC(=N)N1N=C2/C(=C/c3ccccc3)CCC[C@H]2[C@H]1c1ccccc1 | 2.93 | 18.4 | 16.2 | 4.29 | 18.2 | 19.3 | 25.9 | 20.3 | 14.8 | 12.6 | 9.83 | 16.3 | 19.2 | 37.9 | 14.7 | 20.9 | 11.8 | 6.92 | 15.4
CC(C)N(C(=O)C12C3C4C1C1C2C3C41C(=O)N(C(C)C)C(C)C)C(C)C (stereo not drawn) | > 50 | > 50 | > 50 | > 50 | > 50 | > 50 | > 50 | > 50 | > 50 | > 50 | > 50 | > 50 | > 50 | > 50 | > 50 | > 50 | > 50 | > 50 | > 50
CS(=O)(=O)C1(Br)S(=O)(=O)OCCOS1(=O)=O | > 100 | > 100 | > 100 | > 100 | > 100 | > 100 | > 100 | > 100 | > 100 | > 100 | > 100 | > 100 | > 100 | > 100 | > 100 | > 100 | > 100 | > 100 | > 100
C/C(N=NS(=O)(=O)c1ccc(C)cc1)=C1\C=CC=CN1O |  | > 100 |  | > 100 | > 100 | > 100 | > 100 | > 100 | > 100 | > 100 | > 100 | > 100 | > 100 | > 100 | > 100 | > 100 | > 100 | > 100 | 
CNC(=O)N1N[C@H](c2ccccc2)[C@@H]1c1ccccc1 | 38.8 | 55.4 | 44.3 | > 100 | 91.2 | > 100 | 43 | > 100 | 56.1 | 71.1 | 36.3 | > 100 | 47.9 |  | > 100 | 64 | > 100 | > 100 | 32
CN(C)C(F)=PC(F)(F)F (stereo not drawn) | > 100 | > 100 | > 100 | > 100 | > 100 | > 100 | > 100 | > 100 | > 100 | > 100 | > 100 | > 100 | > 100 | > 100 | > 100 | > 100 | > 100 | > 100 | > 100
COC(=O)c1ccc(C=C(C#N)C#N)cc1 | 74.6 | > 100 | 50.3 | 58.1 | > 100 | > 100 | 61.5 | 33.4 | 32.7 | 65.7 | 31.5 | > 100 | 38.4 | 59.1 | > 100 | > 100 | 47 |  | 38.1
COC(=O)CCC(NC(=S)N/N=C(\C)c1cnccn1)C(=O)OC (stereo not drawn) | > 100 | > 100 | > 100 | 38.6 | > 100 | > 100 | > 100 | > 100 | > 100 | 61 | > 100 | > 100 | > 100 | > 100 | 79.7 | > 100 | > 100 | > 100 | > 100
O=c1ccc2ccccc2c2ccccc12 | 18.3 | 52.2 | 3.99 | 9.97 | 13 | 8.73 | 4.93 | 10.1 | 6.52 | 20.3 | 11.4 | 31.8 | 6.33 | 6.19 | 6.7 | 5.64 | 20.4 | 16.6 | 16.2
CSc1ccc2c(cc1=O)C(NC(=O)c1ccc(C#N)cc1)CCc1cc(O)c(O)c(O)c1-2 (stereo not drawn) | 38.6 | > 100 |  | 51.9 | 63.7 | > 100 | 45.3 | > 100 | 89.6 | 59 | 32.5 | > 100 | 71.3 | > 100 | > 100 | 36.6 | 27.2 | 37 | 
